Data on 23 compounds can be found in patent US11078467B2 (University of Florida Research Foundation, Incorporated, priority 2016, dated 2021).

Assay [1] deals with T1, TxtE (Streptomyces scabiei, UniProt C9ZDC6). In words: biochemical. It is filed as binding, S. scabies. The arrangement: inferred from Ni-NTA purification and the pET28b vector; made in house; host or cells: E. coli BL21 (DE3)-GOLD, pET28b. Conditions: for Interaction with TxtE in spectroscopic analysis (in words): Type I spectral shift. The procedure:
(§1) The ferric heme of enzymes was then saturated with carbon monoxide (Airgas) through bubbling and the spectra of the saturated enzyme solutions were recorded. Immediately, sodium dithionite solution (30 μL, 0.5 M) was added to reduce ferric ion, and reduced spectra were taken subsequently. CO reduced difference spectra of all enzymes were created by subtracting the CO binding spectra from the reduced spectra. Data were further analyzed by Excel. […] Not more than 10 μl of substrate stock solutions prepared in the above buffer were added to the sample cuvette with an interval of 0.5 μl, and the spectra were recorded from 300 nm to 500 nm each time. The equal volume of buffer was added to the reference cuvette. The changes in absorbance (AA) were determined by subtracting the absorbance at ˜420 nm from that at ˜390 nm. Data were then fitted to the equation of ΔA=ΔAmax[L]/(Kd+[L]) using GraphPad Prism 4.

Assay [2] deals with T2, TB14 (UniProt C9ZDC6+P14779).
T2 construct: 14-aa linker […]; BM3R, reductase domain of P450BM3 (CYP102A1), fusion partner after the linker; inferred from Ni-NTA purification and the pET28b vector; made in house; host or cells: E. coli BL21 (DE3)-GOLD, pET28b-TxtE-BM3R
In words: Binding affinities of Trp analogues toward TB14 (spectral shift titration). Conditions: for Kd: read-out: TB14 Kd, 1.5 μM enzyme, 25 mM Tris-HCl, pH 8.0; for Interaction with TB14 in spectroscopic analysis (in words): Type I spectral shift. The procedure:
as §1

In assay [3] the target is T2, TB14. As to the kind of experiment: Nitration of Trp and its analogues by TB14 (45 min, HPLC). It is filed as biochemical. Conditions: FIG. 8; for Nitration activity of TB14 toward the substrate (in words): 0.5 mM substrate, 45 min. The procedure:
(§2) The reactions were prepared and then incubated at 20° C., 300 rpm for 45 minutes. All experiments were repeated at least three times.
(§3) After centrifugation, 10 μl solutions were analyzed by HPLC. […] All reactions were independently repeated at least three times. […] All experiments were performed at least in triplicate.

In assay [4] the target is T1, TxtE. It is filed as biochemical, S. scabies. Conditions: 0.5 mM substrate, 45 min, FIG. 8. The arrangement: inferred from Ni-NTA purification and the pET28b vector; made in house. As to the method: as §2, §3
Assay [5] concerns the target T3, TB14 (UniProt C9ZDC6).
T3 construct: 14-aa linker […]; BM3R, reductase domain of P450BM3 (CYP102A1), fusion partner after the linker; inferred from Ni-NTA purification and the pET28b vector; made in house; host or cells: E. coli BL21 (DE3)-GOLD, pET28b-TxtE-BM3R
In words: Binding affinities of Trp analogues toward TB14 (spectral shift titration). Conditions: 1.5 μM enzyme, 25 mM Tris-HCl, pH 8.0. As to the method:
as §1

Where [6] appears, read: read-out: TxtE Kd, 1.5 μM enzyme, 25 mM Tris-HCl, pH 8.0.

“Also recorded” adds a separate entry of the source. Like-named read-outs stand apart in the source and are kept apart here.

One may read the Kd as the equilibrium constant for the complex coming apart. For the compound `NC(Cc1c[nH]c2cccc(F)c12)C(=O)O` (racemic) [Example 4-F-Trp, 4-F-DL-Trp], the Kd in assay [1] (setting [6]) came to 189 ± 11.1 µM; in assay [2], 175 ± 12.9 µM.

On to `Cc1cccc2[nH]cc(CC(N)C(=O)O)c12` (racemic) [Example 4-Me-DL-Trp], for which, in assay [3], the “Nitration activity of TB14 toward the substrate (in words)” value is on record as “good activity” and the “Nitration by TB14 favoured over 4-F-DL-Trp” value is reported as “about 8 times”. Besides, the “Interaction with TxtE in spectroscopic analysis (in words)” value in assay [1] is given as “more tightly than 4-F-DL-Trp”. Further, the “Interaction with TB14 in spectroscopic analysis (in words)” value in assay [2] is on record as “more tightly than 4-F-DL-Trp”. Besides, the “Nitration activity of TxtE toward the substrate (in words)” value in assay [4] is reported as “good activity”.

As to `Cc1cccc2[nH]cc(CC(N)C(=O)O)c12` (racemic) [Example 4-Me-Tr, 4-Me-DL-Tryptophan], the Kd in assay [1] turned out to be 9.58 ± 0.36 µM; in assay [5], 13.5 ± 0.98 µM.

As for `Cc1ccc2[nH]cc(CC(N)C(=O)O)c2c1` (racemic) [Example 5-Me-Trp, 5-Me-DL-Trp], the “Nitration activity of TB14 toward the substrate (in words)” value in assay [3] is given as “good activity”. The dissociation constant Kd was determined as 34.7 ± 0.99 µM in assay [1] and 29.9 ± 1.03 µM in assay [5]. In assay [4], the “Nitration activity of TxtE toward the substrate (in words)” value is given as “good activity”.

For `COc1ccc2[nH]cc(CC(N)C(=O)O)c2c1` (racemic) [Example 5-MeO-Trp, 5-MeO-DL-Trp], the Kd amounted to 29.1 ± 1.16 µM in assay [1] and 25.8 ± 1.84 µM in assay [5].

For `N[C@@H](Cc1c[nH]c2cc(F)ccc12)C(=O)O` (racemic) [Example 6-F-Trp, 6-F-DL-Trp], in assay [3], the “Nitration activity of TB14 toward the substrate (in words)” value is on record as “good activity”. For the same compound, the Kd in assay [1] (setting [6]) was found to be 73.4 ± 6.06 µM; in assay [2] it was 65.3 ± 4.49 µM. In assay [4], the “Nitration activity of TxtE toward the substrate (in words)” value is listed as “good activity”.

For `Cc1cccc2c(CC(N)C(=O)O)c[nH]c12` (racemic) [Example 7-Me-Trp, 7-Me-DL-Trp], the Kd in assay [1] was found to be 12.9 ± 0.99 µM; in assay [5], 10.6 ± 0.75 µM.

As for `CC(N)(Cc1c[nH]c2ccccc12)C(=O)O` (racemic) [α-Me-Trp, α-Me-DL-Trp], the Kd in assay [1] is 100 ± 4.3 µM; in assay [5], 94.7 ± 8.52 µM.

As for `O=C(O)C1Cc2c([nH]c3ccccc23)CN1` (stereo not drawn) [2,3,4,9-Tetrahydro-1H-β-carboline-3-carboxynate], the Kd in assay [1] worked out at 579 ± 44.4 µM; in assay [5], 731 ± 86 µM.

`O=C(O)Cc1c[nH]c2ccccc12` [3-Indoleacetic acid] gave a Kd in assay [1] above 17000 µM.

Take `N[C@@H](Cc1c[nH]c2ncccc12)C(=O)O` [7-Azatryptophan]: the results for the dissociation constant Kd in assay [1] (setting [6]) and in assay [5] were 16.8 ± 0.28 µM and 25.5 ± 0.58 µM, respectively.

For `N[C@H](Cc1c[nH]c2ccccc12)C(=O)O` [D-Trp], the Kd in assay [1] worked out at 432 ± 17.2 µM; in assay [5], 470 ± 25.3 µM.

For the compound `N[C@@H](Cc1c[nH]c2ccc(F)cc12)C(=O)O` [Example 5-F-L-Trp, 5-F-L-Trp], the “Nitration activity of TB14 toward the substrate (in words)” value in assay [3] is reported as “good activity; also recorded: comparable to Trp”. In addition, the Kd was 84.2 ± 4.37 µM in assay [1] (setting [6]) and 77.5 ± 5.74 µM in assay [2]. Moreover, the “Nitration activity of TxtE toward the substrate (in words)” value in assay [4] is recorded as “good activity; also recorded: best substrate of TxtE”.

Consider `N[C@@H](Cc1c[nH]c2ccc(O)cc12)C(=O)O` [Example 5-OH-L-Trp, 5-OH-L-Trp], for which the Kd in assay [1] amounted to 341 ± 26.4 µM; in assay [5] it was 453 ± 15.5 µM.

On to `O=C(O)c1c[nH]c2ccccc12` [Indole-3-carboxylic acid], for which, in assay [1], the Kd is above 9000 µM.

`O=C(O)C(O)Cc1c[nH]c2ccccc12` (stereo not shown) [Indole-3-lactic acid]: the dissociation constant Kd in assay [1] is above 7000 µM.

On to `O=C(O)C(=O)Cc1c[nH]c2ccccc12` [Indole-3-pyruvic acid], for which the Kd was 386 ± 42.5 µM in assay [1] (setting [6]) and 478 ± 31.6 µM in assay [2].

Turning to `N[C@@H](Cc1c[nH]c2ccccc12)C(=O)O` [L-Trp, L-tryptophan], the Kd worked out at 24.8 ± 1.11 µM in assay [1] (setting [6]) and 17.4 ± 0.95 µM in assay [5].

Regarding `N[C@H](CO)Cc1c[nH]c2ccccc12` [L-tryptophanol], the equilibrium dissociation constant (Kd) was 221 ± 32.4 µM in assay [1] and 280 ± 43.2 µM in assay [5].

Regarding `NCCc1c[nH]c2ccc(O)cc12` [Serotonin], the Kd in assay [1] (setting [6]) was 322 ± 31.4 µM; in assay [2], 310 ± 38.5 µM.

Consider `N[C@@H](Cc1c[nH]c2ccccc12)C(=O)O` [Trp], for which the “Nitration activity of TB14 toward the substrate (in words)” value in assay [3] is reported as “nitrated”. Besides, the “Nitration activity of TxtE toward the substrate (in words)” value in assay [4] was “nitrated”.

Take `NCCc1c[nH]c2ccccc12` [Tryptamine]: the Kd in assay [1] (setting [6]) was found to be 68.4 ± 6.19 µM; in assay [2], 59.8 ± 7.88 µM.

On to `c1ccc2[nH]ccc2c1` [indole], for which the “Interaction with TxtE in spectroscopic analysis (in words)” value in assay [1] is given as “no detectable level of interaction”. Besides, the “Interaction with TB14 in spectroscopic analysis (in words)” value in assay [2] is reported as “no detectable level of interaction”.
